Results taken from PubChem BioAssay (NCI).
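Where inhibition never reached the appropriate level, the endpoint shown equals the highest concentration tested. Otherwise, values were interpolated linearly from a five-concentration, 48-hour dose response in 96-well plates. TGI: concentration producing complete growth inhibition.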

Columns and labels:
Assay in all cases: NCI-60 cell line screen, 48 h
[1] = system: M14 melanoma
[2] = system: SK-OV-3 ovarian
[3] = system: HL-60(TB) leukemia
[4] = system: 786-0 renal
[5] = system: OVCAR-5 ovarian
[6] = system: IGROV1 ovarian
[7] = system: U251 CNS
[8] = system: MDA-MB-231 breast
[9] = system: MDA-MB-435
[10] = system: DU-145 prostate
[11] = system: ACHN renal
[12] = system: K-562 leukemia
[13] = system: KM12 colon
[14] = system: TK-10 renal
[15] = system: OVCAR-4 ovarian
[16] = system: PC-3 prostate
[17] = system: BT-549 breast
[18] = system: OVCAR-3 ovarian
[19] = system: NCI-H460 lung
[20] = system: HOP-62 NSCLC
[21] = system: SK-MEL-5 melanoma
[22] = system: CAKI-1 renal
[23] = system: HCT-116 colon
[24] = system: SNB-19 CNS
[25] = system: SK-MEL-2 melanoma
[26] = system: NCI-H522 lung
[27] = system: SN12C renal
[28] = system: A498 renal
[29] = system: MALME-3M melanoma
[30] = system: HT29 colon
[31] = system: MCF7 breast
[32] = system: SK-MEL-28 melanoma
[33] = system: LOX IMVI melanoma
[34] = system: A549 NSCLC
[35] = system: UO-31 renal
[36] = system: RPMI-8226 leukemia
[37] = system: COLO 205 colon
[38] = system: HS 578T breast
[39] = system: OVCAR-8 ovarian
[40] = system: CCRF-CEM leukemia
[41] = system: UACC-257 melanoma
[42] = system: NCI-H226 lung
[43] = system: SW-620 colon
[44] = system: SF-539 CNS
[45] = system: NCI-H23 lung
[46] = system: EKVX NSCLC
[47] = system: SF-295 CNS
[48] = system: UACC-62 melanoma
[49] = system: SF-268 CNS
[50] = system: MOLT-4 leukemia
[51] = system: RXF 393 renal
[52] = system: SNB-75 CNS
[53] = system: HOP-92 NSCLC

SMILES: COc1ccc(NC2Oc3cc4c(cc3C(c3cc(OC)c(OC)c(OC)c3)C2C)OCO4)cc1 (stereo not drawn)
- TGI [1]: > 45.1 µM
- TGI [2]: > 100 µM
- TGI [3]: 2 µM
- TGI [4]: > 81.1 µM
- TGI [5]: > 100 µM
- TGI [6]: > 100 µM
- TGI [7]: 11.6 µM
- TGI [8]: > 57.4 µM
- TGI [9]: 0.565 µM
- TGI [10]: > 91.4 µM
- TGI [11]: > 38.5 µM
- TGI [12]: > 100 µM
- TGI [13]: > 31.6 µM
- TGI [14]: > 82.8 µM
- TGI [15]: > 100 µM
- TGI [16]: > 100 µM
- TGI [17]: > 87.9 µM
- TGI [18]: > 100 µM
- TGI [19]: > 48.5 µM
- TGI [20]: 6.98 µM
- TGI [21]: 4.09 µM
- TGI [22]: > 91.5 µM
- TGI [23]: 19.1 µM
- TGI [24]: > 100 µM
- TGI [25]: > 100 µM
- TGI [26]: 2.45 µM
- TGI [27]: > 81.5 µM
- TGI [28]: 0.92 µM
- TGI [29]: > 100 µM
- TGI [30]: > 100 µM
- TGI [31]: > 41.3 µM
- TGI [32]: > 100 µM
- TGI [33]: > 100 µM
- TGI [34]: > 61.9 µM
- TGI [35]: 22.1 µM
- TGI [36]: > 83 µM
- TGI [37]: 2.96 µM
- TGI [38]: > 100 µM
- TGI [39]: > 45.4 µM
- TGI [40]: > 100 µM
- TGI [41]: > 78.5 µM
- TGI [42]: 5.58 µM
- TGI [43]: > 100 µM
- TGI [44]: 0.492 µM
- TGI [45]: > 89.7 µM
- TGI [46]: 34.1 µM
- TGI [47]: 0.971 µM
- TGI [48]: > 100 µM
- TGI [49]: > 100 µM
- TGI [50]: > 100 µM
- TGI [51]: > 100 µM
- TGI [52]: > 100 µM
- TGI [53]: 33.7 µM
